From patent US8940913B2, “Herbicides” (Syngenta Crop Protection, LLC, priority 2007, dated 2015) come the findings set out here.

What all share (assay type): in vivo
Experiment [1] deals with Echinochloa crus-galli (ECHCG). Description: Post-emergence herbicidal activity, glasshouse pot test. As to conditions: 360 h, rate 125 g/ha, evaluated 15 days later, 100=total damage to plant, 0=no damage to plant. In short, it runs like this: (§1)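 Damage rating (0 = none, 100 = total plant damage) taken 15 days after post-emergence or 20 days after pre-emergence spraying. Pots of soil-sown plants treated 1 day (pre) or 10 days (post) after sowing with aqueous spray of acetone-dissolved compound in surfactant/solvent formulation.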

Experiment [2] deals with Digitaria sanguinalis (DIGSA). The description is as above. As to conditions: 360 h, rate 125 g/ha, evaluated 15 days later, 100=total damage to plant, 0=no damage to plant. An outline of the steps: as §1
Experiment [3] has as its system Avena fatua (AVEFA). The description is as above. To be noted: 360 h, rate 125 g/ha, evaluated 15 days later, 100=total damage to plant, 0=no damage to plant. An outline of the steps: as §1
Experiment [4] has as its system Lolium perenne (LOLPE). The description is as above. As to conditions: 360 h, rate 125 g/ha, evaluated 15 days later, 100=total damage to plant, 0=no damage to plant. An outline of the steps: as §1
Experiment [5] has as its system Alopecurus myosuroides (ALOMY). The experiment is described as above. To be noted: 360 h, rate 125 g/ha, evaluated 15 days later, 100=total damage to plant, 0=no damage to plant. In short, it runs like this:
as §1

Experiment [6] concerns Setaria faberi (SETFA). The description is as above. To be noted: 360 h, rate 125 g/ha, evaluated 15 days later, 100=total damage to plant, 0=no damage to plant. In short, it runs like this: as §1
The subject of experiment [7] is Echinochloa crus-galli (ECHCG). Nature of the experiment: Pre-emergence herbicidal activity, glasshouse pot test. To be noted: 480 h, rate 250 g/ha, evaluated 20 days later, 100=total damage to plant, 0=no damage to plant. In short, it runs like this:
as §1

In experiment [8] the test system is Digitaria sanguinalis (DIGSA). Described as above. As to conditions: 480 h, rate 250 g/ha, evaluated 20 days later, 100=total damage to plant, 0=no damage to plant. An outline of the steps:
as §1

Experiment [9] concerns Avena fatua (AVEFA). The description is as above. To be noted: 480 h, rate 250 g/ha, evaluated 20 days later, 100=total damage to plant, 0=no damage to plant. An outline of the steps: as §1
Experiment [10] deals with Lolium perenne (LOLPE). The experiment is described as above. To be noted: 480 h, rate 250 g/ha, evaluated 20 days later, 100=total damage to plant, 0=no damage to plant. In short, it runs like this: as §1
Experiment [11] relates to Alopecurus myosuroides (ALOMY). The experiment is described as above. As to conditions: 480 h, rate 250 g/ha, evaluated 20 days later, 100=total damage to plant, 0=no damage to plant. An outline of the steps: as §1
The subject of experiment [12] is Setaria faberi (SETFA). The description is as above. As to conditions: 480 h, rate 250 g/ha, evaluated 20 days later, 100=total damage to plant, 0=no damage to plant. An outline of the steps:
as §1

Structures are written as SMILES.

Broadly, the pest or weed control is how far the test organism was held down. Turning to `CCc1ccc(-c2ccc(Cl)c(F)c2F)cc1C1=C(O)[C@H]2[C@@H](C1=O)[C@]1(C)CC[C@@]2(C)O1` [Compound T38], the pest or weed control at 125 g/ha in experiment [1] turned out to be 100%; in experiment [2], 100%; in the experiment with Avena fatua (AVEFA) [3], 90%; in the experiment with Lolium perenne (LOLPE) [4] it was 50%; in experiment [5], 100%; in the experiment on Setaria faberi (SETFA) [6], 80%. Further, the pest or weed control at 250 g/ha turned out to be 100% in experiment [7]; 30% in experiment [8]; 30% in the experiment with Avena fatua (AVEFA) [9]; 50% with Lolium perenne (LOLPE) [10]; 0% in experiment [11]; 90% with Setaria faberi (SETFA) [12].

For `Cc1cc(-c2ccccc2)cc(C)c1C1C(=O)[C@@H]2[C@H](C1=O)[C@@]1(C)CC[C@]2(C)O1` (stereo partly drawn) [Compound T7], the pest or weed control at 125 g/ha was 100% in [1]; 80% in [2]; 60% in the experiment on Avena fatua (AVEFA) [3]; 60% with Lolium perenne (LOLPE) [4]; 70% in experiment [5]; 90% in the experiment on Setaria faberi (SETFA) [6]. Further, the pest or weed control at 250 g/ha in experiment [7] is 100%; in experiment [8] it was 100%; with Avena fatua (AVEFA) [9] it was 40%; in the experiment with Lolium perenne (LOLPE) [10], 40%; in experiment [11] it was 90%; with Setaria faberi (SETFA) [12] it was 100%.

On to `CCc1ccc(-c2ccc(Cl)c(Cl)c2F)cc1C1=C(O)[C@H]2[C@@H](C1=O)[C@]1(C)CC[C@@]2(C)O1` [Compound T40], for which the pest or weed control at 125 g/ha in experiment [1] is 100%; in experiment [2], 100%; in the experiment with Avena fatua (AVEFA) [3] it was 40%; in the experiment on Lolium perenne (LOLPE) [4], 30%; in experiment [5], 60%; in the experiment with Setaria faberi (SETFA) [6], 80%. Besides, the pest or weed control at 250 g/ha in experiment [7] was 50%; in experiment [8], 100%; in the experiment on Avena fatua (AVEFA) [9], 10%; in the experiment on Lolium perenne (LOLPE) [10] it was 0%; in experiment [11], 10%; in the experiment on Setaria faberi (SETFA) [12], 70%.

Turning to `CCc1ccc(-c2ccc(Cl)cc2)cc1C1=C(O)[C@H]2[C@@H](C1=O)[C@@H]1C=C[C@H]2O1` (racemic) [Compound T4, (1RS,2SR,6RS,7SR)-4-(4′-chloro-4-ethylbiphen-3-yl)-10-oxatricyclo[5.2.1.0^2,6]dec-8-ene-3,5-dione], the pest or weed control at 125 g/ha was determined as 100% in experiment [1]; 100% in experiment [2]; 60% with Avena fatua (AVEFA) [3]; 80% in the experiment on Lolium perenne (LOLPE) [4]; 80% in experiment [5]; 100% with Setaria faberi (SETFA) [6]. Also, the pest or weed control at 250 g/ha was determined as 100% in experiment [7]; 100% in experiment [8]; 50% in the experiment on Avena fatua (AVEFA) [9]; 60% in the experiment with Lolium perenne (LOLPE) [10]; 60% in experiment [11]; 100% in the experiment with Setaria faberi (SETFA) [12].

As for `CCc1ccc(-c2ccc(Cl)c(OC)c2)cc1C1=C(O)[C@H]2[C@@H](C1=O)[C@@H]1CC[C@H]2O1` [Compound T15], the pest or weed control at 125 g/ha was 100% in experiment [1]; 100% in experiment [2]; 90% in the experiment on Avena fatua (AVEFA) [3]; 40% with Lolium perenne (LOLPE) [4]; 100% in experiment [5]; 100% with Setaria faberi (SETFA) [6]. The pest or weed control at 250 g/ha in experiment [7] was found to be 100%; in experiment [8], 90%; in the experiment with Avena fatua (AVEFA) [9] it was 10%; in the experiment with Lolium perenne (LOLPE) [10] it was 20%; in [11], 20%; with Setaria faberi (SETFA) [12], 80%.

Take `CCc1ccc(-c2ccc(Cl)cc2)cc1C1=C(O)[C@H]2[C@@H](C1=O)[C@]1(C)CC[C@@]2(C)O1` [Compound T3]: the pest or weed control at 125 g/ha amounted to 90% in [1]; 90% in [2]; 90% with Avena fatua (AVEFA) [3]; 80% in the experiment with Lolium perenne (LOLPE) [4]; 100% in experiment [5]; 90% in the experiment with Setaria faberi (SETFA) [6]. The pest or weed control at 250 g/ha in [7] was determined as 100%; in experiment [8] it was 100%; in the experiment with Avena fatua (AVEFA) [9], 80%; in the experiment with Lolium perenne (LOLPE) [10], 80%; in experiment [11] it was 70%; in the experiment on Setaria faberi (SETFA) [12], 100%.

For the molecule `Cc1cc(-c2ccccc2)cc(C)c1C1C(=O)[C@H]2[C@@H]3CC[C@@](C)(O3)[C@H]2C1=O` (stereo partly drawn) [Compound T8], the pest or weed control at 125 g/ha in experiment [1] came to 100%; in experiment [2], 100%; in the experiment with Avena fatua (AVEFA) [3], 90%; with Lolium perenne (LOLPE) [4], 70%; in experiment [5], 100%; in the experiment with Setaria faberi (SETFA) [6], 100%. Moreover, the pest or weed control at 250 g/ha stood at 100% in experiment [7]; 100% in [8]; 50% in the experiment with Avena fatua (AVEFA) [9]; 80% with Lolium perenne (LOLPE) [10]; 90% in [11]; 100% in the experiment on Setaria faberi (SETFA) [12].

As for `CCc1ccc(-c2ccc(Cl)c(Cl)c2)cc1C1=C(O)[C@H]2[C@@H](C1=O)[C@]1(C)CC[C@@]2(C)O1` [Compound T29], the pest or weed control at 125 g/ha is 100% in [1]; 100% in experiment [2]; 90% in the experiment on Avena fatua (AVEFA) [3]; 50% in the experiment on Lolium perenne (LOLPE) [4]; 90% in experiment [5]; 100% with Setaria faberi (SETFA) [6]. The pest or weed control at 250 g/ha turned out to be 0% in [7]; 40% in [8]; 0% with Avena fatua (AVEFA) [9]; 30% in the experiment on Lolium perenne (LOLPE) [10]; 10% in [11]; 50% with Setaria faberi (SETFA) [12].

Consider `CCc1ccc(-c2ccc(Cl)c(C(F)(F)F)c2)cc1C1=C(O)[C@H]2[C@@H](C1=O)[C@@H]1CC[C@H]2O1` [Compound T17], for which the pest or weed control at 125 g/ha in [1] amounted to 100%; in experiment [2], 100%; in the experiment on Avena fatua (AVEFA) [3] it was 90%; with Lolium perenne (LOLPE) [4] it was 40%; in experiment [5], 90%; in the experiment on Setaria faberi (SETFA) [6], 100%. The pest or weed control at 250 g/ha in [7] was found to be 90%; in [8], 90%; with Avena fatua (AVEFA) [9], 0%; in the experiment on Lolium perenne (LOLPE) [10], 20%; in experiment [11] it was 0%; with Setaria faberi (SETFA) [12] it was 80%.

Take `CCc1cc(-c2ccc(C)cc2)cc(CC)c1C1=C(OC(C)=O)[C@H]2[C@@H](C1=O)[C@@H]1CC[C@H]2O1` [Compound P9]: the pest or weed control at 125 g/ha in experiment [1] is 100%; in [2] it was 100%; with Avena fatua (AVEFA) [3] it was 80%; in the experiment with Lolium perenne (LOLPE) [4] it was 80%; in experiment [5], 80%; in the experiment on Setaria faberi (SETFA) [6], 90%. The pest or weed control at 250 g/ha in [7] turned out to be 100%; in experiment [8], 40%; with Avena fatua (AVEFA) [9], 60%; in the experiment with Lolium perenne (LOLPE) [10] it was 70%; in experiment [11], 50%; in the experiment on Setaria faberi (SETFA) [12], 60%.

Consider `CCc1ccc(-c2ccc(Cl)cc2F)cc1C1=C(O)[C@H]2[C@@H](C1=O)[C@@H]1CC[C@H]2O1` [Compound T10], for which the pest or weed control at 125 g/ha turned out to be 100% in experiment [1]; 100% in experiment [2]; 90% in the experiment on Avena fatua (AVEFA) [3]; 90% in the experiment with Lolium perenne (LOLPE) [4]; 90% in experiment [5]; 100% in the experiment with Setaria faberi (SETFA) [6]. Moreover, the pest or weed control at 250 g/ha amounted to 100% in experiment [7]; 100% in experiment [8]; 70% in the experiment with Avena fatua (AVEFA) [9]; 80% in the experiment on Lolium perenne (LOLPE) [10]; 70% in experiment [11]; 100% with Setaria faberi (SETFA) [12].

`Cc1cc(-c2ccc(C(F)(F)F)cc2)cc(C)c1C1C(=O)[C@@H]2[C@H](C1=O)[C@H]1CC[C@@H]2O1` (stereo partly drawn) [Compound T26]: the pest or weed control at 125 g/ha in experiment [1] came to 90%; in [2], 90%; with Avena fatua (AVEFA) [3] it was 20%; with Lolium perenne (LOLPE) [4], 30%; in experiment [5], 30%; in the experiment on Setaria faberi (SETFA) [6], 100%. Also, the pest or weed control at 250 g/ha in experiment [7] was 70%; in experiment [8] it was 70%; in the experiment on Avena fatua (AVEFA) [9], 0%; in the experiment on Lolium perenne (LOLPE) [10] it was 0%; in [11], 0%; with Setaria faberi (SETFA) [12] it was 70%.
